Measurements: patent publication US7560466B2, “Methods of treating or preventing autoimmune diseases with 2,4-pyrimidinediamine compounds” (Rigel Pharmaceuticals, Inc., priority 2003, dated 2009)
Counter-ions that a name gives are not always drawn. Like-named read-outs stand apart in the source and are kept apart here.

Tests used:
[1] = system: cultured human mast cells (CHMC), IgE-induced degranulation; experiment: CHMC low cell density IgE activation: tryptase assay; format: cell-based
Method in brief: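 Cord-blood CD34+-derived mucosal mast cells (SCF/IL-6 medium), 1000–1500 cells/well, preincubated with compound 1 h at 37°C, then anti-IgE stimulated 30 min at 37°C.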

[2] = system: cultured human mast cells (CHMC), ionomycin-induced degranulation; experiment: CHMC low cell density ionomycin activation: tryptase assay; format: cell-based; conditions: read-out: LD Tryptase, CHMC, Iono, 3pt
[3] = low cell density CHMC, 8-point, read-out: LD Tryptase, CHMC, IgE, 8pt
[4] = low cell density CHMC, ionomycin activation, 3-point
[5] = CHMC low cell density, 3pt, read-out: LD Tryptase, CHMC, IgE, 3pt
[6] = CHMC low cell density, ionomycin activation, 3pt
[7] = low cell density CHMC, 3pt, read-out: LD Tryptase, CHMC, IgE, 3pt
[8] = low cell density CHMC, 8pt, read-out: LD Tryptase, CHMC, IgE, 8pt
[9] = low cell density CHMC, ionomycin activation, 3pt
[10] = CHMC low cell density, 8pt, read-out: LD Tryptase, CHMC, IgE, 8pt
[11] = low cell density CHMC, 3-point, read-out: LD Tryptase, CHMC, IgE, 3pt
[12] = low cell density CHMC, ionomycin activation (2 μM final), 3pt

| IC50 [1, 3] | IC50 [2, 4] | IC50 [1, 5] | IC50 [2, 6] | IC50 [1, 11] | SMILES | other results |
| --- | --- | --- | --- | --- | --- | --- |
| < 10 µM | > 10 µM | – | – | – | CNC(=O)COc1c(C)cc(Nc2ncc(F)c(Nc3ccc4c(n3)NC(=O)C(C)(C)O4)n2)cc1Cl [Compound 1037, N2-[3-Chloro-5-methyl-4-(N-methylamino)carbonylmethyleneoxyphenyl]-N4-(2,2-dimethyl-3-oxo-4H-5-pyrid[1,4]oxazin-6-yl)-5-fluoro-2,4-pyrimidinediamine] | – |
| – | – | < 10 µM | > 10 µM | – | CN1C(=O)C(C)(C)Oc2ccc(Nc3nc(Nc4ccc(-c5ncco5)cc4)ncc3F)nc21 [Compound 1013, 5-Fluoro-N2-[4-(oxazol-2-yl)phenyl]-N4-[3-oxo-2,2,4-trimethyl-5-pyrid[1,4]oxazin-6-yl]-2,4-pyrimidinediamine] | – |
| – | – | < 10 µM | > 10 µM | – | CN1C(=O)C(C)(C)Oc2ccc(Nc3nc(Nc4cccc(-c5ncco5)c4)ncc3F)nc21 [Compound 1012, 5-Fluoro-N2-[3-(oxazol-2-yl)phenyl]-N4-[3-oxo-2,2,4-trimethyl-5-pyrid[1,4]oxazin-6-yl]-2,4-pyrimidinediamine] | IC50 [1, 10]: < 10 µM |
| < 10 µM | > 10 µM | – | – | < 10 µM | CNC(=O)COc1cccc(Nc2ncc(F)c(Nc3ccc4c(n3)N(C)C(=O)C(C)(C)O4)n2)c1 [Compound 1015, 5-Fluoro-N2-[3-(N-methylamino)carbonylmethyleneoxyphenyl]-N4-[3-oxo-2,2,4-trimethyl-5-pyrid[1,4]oxazin-6-yl]-2,4-pyrimidinediamine] | – |
| – | – | < 10 µM | > 10 µM | – | COC(=O)Cn1ccc2ccc(Nc3ncc(F)c(Nc4ccc5c(c4)NC(=O)C(C)(C)O5)n3)cc21 [Compound 639, N4-(2,2-Dimethyl-3-oxo-4H-benz[1,4]oxazin-6-yl)-5-fluoro-N2-[1-(methoxycarbonylmethylene)indol-6-yl]-2,4-pyrimidinediamine] | IC50 [1, 10]: < 10 µM |
| < 10 µM | > 10 µM | – | – | < 10 µM | CCn1ncc2ccc(Nc3ncc(F)c(Nc4ccc5c(n4)NC(=O)C(C)(C)O5)n3)cc21 [Compound 1049, N4-(2,2-Dimethyl-3-oxo-4H-5-pyrid[1,4]oxazin-6-yl)-N2-(1-ethylindazol-6-yl)-5-fluoro-2,4-pyrimidinediamine] | – |
| > 10 µM | > 10 µM | – | – | > 10 µM | Cc1cc(Nc2ncc(F)c(Nc3ccc4c(n3)NC(=O)C(C)(C)O4)n2)cc(C)c1OCC(=O)NC1CCCC1 [Compound 1044, N2-[3,5-Dimethyl-4-(N-cyclopentylamino)carbonylmethyleneoxyphenyl]-N4-(2,2-dimethyl-3-oxo-4H-5-pyrid[1,4]oxazin-6-yl)-5-fluoro-2,4-pyrimidinediamine] | – |
| – | – | < 10 µM | > 10 µM | – | Cc1ccccc1Nc1ncc(F)c(Nc2ccc3c(n2)NC(=O)C(C)(C)O3)n1 [Compound 1004, N4-(2,2-Dimethyl-3-oxo-4H-5-pyrid[1,4]oxazin-6-yl)-5-fluoro-N2-(2-methylphenyl)-2,4-pyrimidinediamine] | – |
| – | – | < 10 µM | > 10 µM | – | COc1c(C)cc(Nc2ncc(F)c(Nc3ccc4c(n3)N(C)C(=O)C(C)(C)O4)n2)cc1Cl [Compound 1009, N2-(3-Chloro-4-methoxy-5-methylphenyl)-5-fluoro-N4-(3-oxo-2,2,4-trimethyl-5-pyrid[1,4]oxazin-6-yl)-2,4-pyrimidinediamine] | IC50 [1, 10]: < 10 µM |
| – | > 10 µM | – | – | < 10 µM | Cc1cc(Nc2ncc(F)c(Nc3ccc4c(n3)NC(=O)C(C)(C)O4)n2)cc(Cl)c1OC1CCCC1 [Compound 1027, N2-(3-Chloro-4-cyclopentyloxy-5-methylphenyl)-N4-(2,2-dimethyl-3-oxo-4H-5-pyrid[1,4]oxazin-6-yl)-5-fluoro-2,4-pyrimidinediamine] | – |
| < 10 µM | > 10 µM | – | – | < 10 µM | CC1(C)Oc2ccc(Nc3nc(Nc4ccc5c(c4)OCCO5)ncc3F)nc2NC1=O [Compound 1055, N4-(2,2-Dimethyl-3-oxo-4H-5-pyrid[1,4]oxazin-6-yl)-N2-(3,4-ethylenedioxyphenyl)-5-fluoro-2,4-pyrimidinediamine] | – |

Continued, compound first:

| SMILES | IC50 [1, 3] | IC50 [2, 4] | IC50 [1, 5] | IC50 [2, 6] | IC50 [1, 11] | other results |
| --- | --- | --- | --- | --- | --- | --- |
| COc1cc(Nc2ncc(F)c(Nc3ccc4c(c3)NCC(CCO)O4)n2)cc(OC)c1 (stereo not drawn) [Compound 253, N4-[3,4-Dihydro-2-(2-hydroxyethyl)-2H,4H-benz[1,4]oxazin-6-yl]-N2-(3,5-dimethoxyphenyl)-5-fluoro-2,4-pyrimidinediamine] | – | – | – | – | – | IC50 [1, 7]: < 10 µM; IC50 [1, 8]: < 10 µM; IC50 [2, 9]: > 10 µM |
| Fc1cnc(Nc2cccc(-c3ncco3)c2)nc1Nc1ccc2c(n1)NCCO2 [Compound 1143, N4-(3,4-Dihydro-2H,4H-5-pyrid[1,4]oxazin-6-yl)-5-fluoro-N2-[3-(oxazol-2-yl)phenyl]-2,4-pyrimidinediamine] | – | – | – | – | – | IC50 [1, 7]: < 10 µM; IC50 [1, 8]: < 10 µM; IC50 [2, 12]: > 10 µM |
| Fc1cnc(Cl)nc1Nc1ccc2c(n1)NCCO2 [Compound 1117, 2-Chloro-5-fluoro-N4-(3,4-dihydro-2H,4H-5-pyrid[1,4]oxazin-6-yl)-4-pyrimidineamine] | – | > 10 µM | – | – | > 10 µM | – |
| COc1cc(C)c(Nc2ncc(F)c(Nc3ccc4c(c3)NC(C)(C)CO4)n2)cc1Cl [Compound 216, N2-(3-Chloro-4-methoxy-6-methylphenyl)-N4-(3,4-dihydro-3,3-dimethyl-2H,4H-benz[1,4]oxazin-6-yl)-5-fluoro-2,4-pyrimidinediamine] | – | – | – | – | – | IC50 [1, 7]: < 10 µM; IC50 [1, 8]: < 10 µM; IC50 [2, 9]: > 10 µM |
| COC(=O)Cn1ccc2cc(Nc3ncc(F)c(Nc4ccc5c(c4)OCCO5)n3)ccc21 [Compound 647, N4-(3,4-Ethylenedioxyphenyl)-5-fluoro-N2-[1-(methoxycarbonylmethylene)indol-5-yl]-2,4-pyrimidinediamine] | – | – | < 10 µM | > 10 µM | – | IC50 [1, 10]: < 10 µM |
| CC(=O)N1CCN(c2cccc(Nc3ncc(F)c(Nc4ccc5c(c4)OC(F)(F)C(F)(F)O5)n3)c2)CC1 [Compound 431] | – | – | < 10 µM | > 10 µM | – | IC50 [1, 10]: < 10 µM |
| CNC(=O)COc1cccc(Nc2ncc(F)c(Nc3ccc4c(c3)NC(=O)C(F)(F)O4)n2)c1 [Compound 1045, N4-(2,2-Difluoro-3-oxo-4H-benz[1,4]oxazin-6-yl)-5-fluoro-N2-[3-(N-methylamino)carbonylmethyleneoxyphenyl]-2,4-pyrimidinediamine Hydrogen Chloride Salt] | < 10 µM | > 10 µM | – | – | < 10 µM | – |
| C[C@@H]1Oc2ccc(Nc3nc(Nc4cc(C(C)(C)C)[nH]n4)ncc3F)nc2NC1=O [Compound 1092, (S)—N2-(5-tert-Butyl-1H-pyrazol-3-yl)-5-fluoro-N4-(2-methyl-3-oxo-2H,4H-5-pyrid[1,4]oxazin-6-yl)-2,4-pyrimidinediamine] | < 10 µM | > 10 µM | – | – | < 10 µM | – |
| C[C@@H]1Oc2ccc(Nc3nc(Nc4ccc(CNC(=O)CNC(=O)OC(C)(C)C)cc4)ncc3F)cc2NC1=O [Compound 1308, (S)—N2-[4-[1-(tert-Butoxycarbonylamino)methylenecarbonylamino]methylphenyl]-5-fluoro-N4-(2-methyl-3-oxo-2H,4H-benz[1,4]oxazin-6-yl)-2,4-pyrimidinediamine] | – | – | – | – | – | IC50 [1, 7]: < 10 µM; IC50 [1, 8]: < 10 µM; IC50 [2, 12]: < 10 µM |
| CN1C(=O)C(C)(C)Oc2ccc(N(C)c3nc(Cl)ncc3F)nc21 [Compound 1005, 2-Chloro-5-fluoro-N4-methyl-N4-(3-oxo-2,2,4-trimethyl-5-pyrid[1,4]oxazin-6-yl)-4-pyrimdinea mine] | – | – | < 10 µM | > 10 µM | – | – |
